Measurements from US20100311694A1, “Set of Geldanamycin Derivatives and Their Preparation Methods” (Institute of Medicinal Biotechnology, Chinese Academy of …, priority 2008, published 2010).

Legend:
[1] = test system: HBV; assay: Anti-HBV activity (HBV DNA in cell lysate, spot hybridization); type: cell-based; settings: HBV DNA content of the cells, reagent solution changed every 4 days
Method: Test Procedure for Anti-HBV Activity
Using cell culture method, the preparation of the cells to be tested (100,000 cell's/mL) is inoculated into cell culture plate in 100 μl each well and the cells are cultured 24 h at 37° C. in 5% CO2. Tests are carried out when the cells grow into a monolayer. The target compounds as well as the controls are prepared into a series of solutions of appropriate concentrations using the culture medium and are added into 96 well culture plate respectively in 4 wells per one concentration. Then the reagent solution in each well is changed into the fresh reagent solution with the same concentration every 4 days. A cell control without reagent treatment is simultaneously is set up. The observation index is based upon the pathological changes of the cells by observing the degrees of the pathological changes of the cells under microscope every 8 days. […] Cell control without drug treatment is simultaneously is set up. The reagent solution or control medium in each well is changed into the fresh reagent solution or fresh medium respectively every 4 days. After cytolysis of the cells, HBV DNA is extracted from the cell lysis solution according to the molecular cloning technical procedure. The spots of different samples are hybridized and the A values of different hybridized spots are measured using autoradiograghic technique. The HBV DNA contents in the cell control as well as in the drug treated samples are calculated using the regression equations obtained from the standard curves to obtain half effective concentration values, the results are shown in Table 1.

[2] = test system: HIV-1; assay: Anti HIV-1 activity (HIV-1 P24 antigen in cell cultures); type: cell-based; settings: 4 days after addition of the reagents
Method: Test Procedure of Anti HIV-1 Activity
8 reagent solutions of different diluted concentrations and positive control solutions are added into cell cultures in 96 well plate respectively. The sample of each diluted solutions is made duplicately and a control cell sample is also is set up. 100 μl of cell sample at a concentration of 2×10^5cells/ml is inoculated into the wells containing reagent in the plate. The cells samples are cultured in a saturated humidity culture chamber (at a 5% CO2 atmosphere) at 37° C. The pathological changes of cells are observed daily.

| SMILES | Activity of HBV inhibition IC50 [1] [µg/mL] | Activity of HIV inhibition IC50 [2] [µg/mL] |
| --- | --- | --- |
| COC1C=CC=C(C)C(=O)NC2=CC(=O)C(NCCNCCO)=C(CC(C)CC(OC)C(O)C(C)C=C(C)C1OC(N)=O)C2=O (centres unmarked) [GM-W26] | 0.64 | 0.21 |
| COC1C=CC=C(C)C(=O)NC2=CC(=O)C(NC(CO)C(C)C)=C(CC(C)CC(OC)C(O)C(C)C=C(C)C1OC(N)=O)C2=O (centres unmarked) [GM-W58] | 0.64 | 1.39 |
| COC1C=CC=C(C)C(=O)NC2=CC(=O)C(NC3CCNCC3)=C(CC(C)CC(OC)C(O)C(C)C=C(C)C1OC(N)=O)C2=O (centres unmarked) [GM-W37] | 1.32 | 1.43 |
| CO[C@H]1/C=C/C=C(\C)C(=O)NC2=C(NC[C@H]3CCCO3)C(=O)C(NC[C@H]3CCCO3)=C(C[C@H](C)C[C@H](OC)[C@H](O)[C@@H](C)/C=C(\C)[C@H]1OC(N)=O)C2=O [THFM-II, 17,19-di-(R)-tetrahydrofurfuryl amino-17-demethoxy geldanamycin] | 0.013 | >22.2 |
| COC1C=CC=C(C)C(=O)NC2=CC(=O)C(NCC(O)CO)=C(CC(C)CC(OC)C(O)C(C)C=C(C)C1OC(N)=O)C2=O (centres unmarked) [GM-W74] | 8.9 | 0.47 |
| COC1C=CC=C(C)C(=O)NC2=CC(=O)C(NC(C)(CO)CO)=C(CC(C)CC(OC)C(O)C(C)C=C(C)C1OC(N)=O)C2=O (centres unmarked) [GM-W6] | 1.32 | 1.47 |
| COC1C=CC=C(C)C(=O)NC2=CC(=O)C(NC3CCc4ccccc43)=C(CC(C)CC(OC)C(O)C(C)C=C(C)C1OC(N)=O)C2=O (centres unmarked) [GM-W21] | 10.4 | 58.97 |
| COC1C=CC=C(C)C(=O)NC2=CC(=O)C(NCCN3CCOCC3)=C(CC(C)CC(OC)C(O)C(C)C=C(C)C1OC(N)=O)C2=O (centres unmarked) [GM-APML, 17-(2′-(1″-oxa-4″-azacyclohexyl-1″-)ethylamino)-17-demethoxy geldanamycin] | 0.064 | <0.01 |
| COC1C=CC=C(C)C(=O)NC2=CC(=O)C(NCCOC(C)C)=C(CC(C)CC(OC)C(O)C(C)C=C(C)C1OC(N)=O)C2=O (centres unmarked) [GM-W31] | 0.32 | 0.32 |
| COC1C=CC=C(C)C(=O)NC2=CC(=O)C(NC3CCN(c4ccncc4)CC3)=C(CC(C)CC(OC)C(O)C(C)C=C(C)C1OC(N)=O)C2=O (centres unmarked) [GM-W38] | 0.64 | 1.59 |
| COC1C=CC=C(C)C(=O)NC2=CC(=O)C(NC(CO)c3cc(Cl)cc(Cl)c3)=C(CC(C)CC(OC)C(O)C(C)C=C(C)C1OC(N)=O)C2=O (centres unmarked) [GM-W81] | 2.3 | 2.46 |
| COC1C=CC=C(C)C(=O)NC2=CC(=O)C(NCCCn3ccnc3)=C(CC(C)CC(OC)C(O)C(C)C=C(C)C1OC(N)=O)C2=O (centres unmarked) [GM-129, 17-(3′-(1″-imidazolyl)propylamino)-17-demethoxy geldanamycin] | 0.32 | 1.92 |
| COC1C=CC=C(C)C(=O)NC2=CC(=O)C(NNC(=O)c3ccco3)=C(CC(C)CC(OC)C(O)C(C)C=C(C)C1OC(N)=O)C2=O (centres unmarked) [GM-W4] | 3.2 | 0.33 |
| COC1C=CC=C(C)C(=O)NC2=CC(=O)C(NCCCN3CCOCC3)=C(CC(C)CC(OC)C(O)C(C)C=C(C)C1OC(N)=O)C2=O (centres unmarked) [GM-W75] | 0.1 | 1.21 |
| COC1C=CC=C(C)C(=O)NC2=CC(=O)C(NCCS(=O)(=O)O)=C(CC(C)CC(OC)C(O)C(C)C=C(C)C1OC(N)=O)C2=O (centres unmarked) [GM-W5] | 6.4 | 10.26 |
| COC1C=CC=C(C)C(=O)NC2=CC(=O)C(NCCCN3CCOCC3)=C(CC(C)CC(OC)C(O)C(C)C=C(C)C1OC(N)=O)C2=O (centres unmarked) [GM-W46] | 1.49 | 1.32 |

| SMILES | Activity of HBV inhibition IC50 [1] [µg/mL] | Activity of HIV inhibition IC50 [2] [µg/mL] |
| --- | --- | --- |
| COC1C=CC=C(C)C(=O)NC2=CC(=O)C(NCC3OCCO3)=C(CC(C)CC(OC)C(O)C(C)C=C(C)C1OC(N)=O)C2=O (centres unmarked) [GM-W29] | 6.4 | 0.67 |
| CO[C@H]1/C=C/C=C(\C)C(=O)NC2=CC(=O)C(NC[C@H]3CCCO3)=C(C[C@H](C)C[C@H](OC)[C@H](O)[C@@H](C)/C=C(\C)[C@H]1OC(N)=O)C2=O [THFM(R)-GM, 2′R-17-tetrahydrofurfurylamino-17-demethoxy geldanamycin] | 0.01 | 0.05 |
| COC1C=CC=C(C)C(=O)NC2=CC(=O)C(NCCO)=C(CC(C)CC(OC)C(O)C(C)C=C(C)C1OC(N)=O)C2=O (centres unmarked) [GM-W42] | 0.01 | 0.091 |
| COC1C=CC=C(C)C(=O)NC2=CC(=O)C(NCCCN(CCO)CCO)=C(CC(C)CC(OC)C(O)C(C)C=C(C)C1OC(N)=O)C2=O (centres unmarked) [GM-W43] | 0.64 | 0.87 |
| COC1C=CC=C(C)C(=O)NC2=CC(=O)C(NCC3CCCNC3)=C(CC(C)CC(OC)C(O)C(C)C=C(C)C1OC(N)=O)C2=O (centres unmarked) [GM-W23] | 0.32 | 0.46 |
| COC1C=CC=C(C)C(=O)NC2=CC(=O)C(NC(C)(C)CO)=C(CC(C)CC(OC)C(O)C(C)C=C(C)C1OC(N)=O)C2=O (centres unmarked) [GM-W7] | 8.0 | 9.89 |
| COC1C=CC=C(C)C(=O)NC2=CC(=O)C(NCc3cncc(C)n3)=C(CC(C)CC(OC)C(O)C(C)C=C(C)C1OC(N)=O)C2=O (centres unmarked) [GM-W2] | 8.0 | 19.6 |
| CO[C@H]1/C=C/C=C(\C)C(=O)NC2=CC(=O)C(NCCCN3CCCC3=O)=C(C[C@H](C)C[C@H](OC)[C@H](O)[C@@H](C)/C=C(\C)[C@H]1OC(N)=O)C2=O [GM-226, 17-(3′-(2″-pyrrolidonyl)propylamino)-17-demethoxy geldanamycin] | 1.6 | >0.14 |
| COC1C=CC=C(C)C(=O)NC2=CC(=O)C(NC(c3ccccc3)c3ccccc3)=C(CC(C)CC(OC)C(O)C(C)C=C(C)C1OC(N)=O)C2=O (centres unmarked) [GM-W44] | >100 | >60 |
| COC1C=CC=C(C)C(=O)NC2=CC(=O)C(Nc3cnc(C)c(C)n3)=C(CC(C)CC(OC)C(O)C(C)C=C(C)C1OC(N)=O)C2=O (centres unmarked) [GM-W57] | 8.0 | 13.76 |
| COC1C=CC=C(C)C(=O)NC2=CC(=O)C(NCCCN3CCCC3)=C(CC(C)CC(OC)C(O)C(C)C=C(C)C1OC(N)=O)C2=O (centres unmarked) [GM-W76] | 0.01 | 0.24 |
| COc1cccc(CCNC2=C3CC(C)CC(OC)C(O)C(C)C=C(C)C(OC(N)=O)C(OC)C=CC=C(C)C(=O)NC(=CC2=O)C3=O)c1 (centres unmarked) [GM-W87] | 0.064 | 0.39 |
| COC1C=CC=C(C)C(=O)NC2=CC(=O)C(NCCC3CCN(Cc4ccccc4)CC3)=C(CC(C)CC(OC)C(O)C(C)C=C(C)C1OC(N)=O)C2=O (centres unmarked) [GM-W27] | 3.9 | 13.81 |
| CO[C@H]1/C=C\C=C(/C)C(=O)NC2=CC(=O)C(NCC3CCCO3)=C(C[C@@H](C)C[C@H](OC)[C@H](O)[C@@H](C)/C=C(\C)[C@@H]1OC(N)=O)C2=O (some centres unmarked) [THFM-GM, 17-tetrahydrofurfurylamino-17-demethoxy geldanamycin] | 0.01 | 0.14 |
| COC1C=CC=C(C)C(=O)NC2=CC(=O)C(NCCC3OCCO3)=C(CC(C)CC(OC)C(O)C(C)C=C(C)C1OC(N)=O)C2=O (centres unmarked) [GM-W28] | 0.10 | 0.21 |
